Laboratory results reported in publication PMC7801736 (ACS infectious diseases, 2019).
Converted amounts (≈) assume the structure as drawn. Where two headings read alike, the source gives them in different places.

Columns and labels:
[1] = test system: M. tuberculosis inhA overexpression strain mc^24914; assay: microbe, parasite or virus in culture; assay type: cell-based, Mycobacterium tuberculosis; conditions: for MIC: Mycobacterium tuberculosis
[2] = test system: M. tuberculosis strain H37Rv; assay type: cell-based, Mycobacterium tuberculosis; conditions: H37Rv background
[3] = test system: M. tuberculosis strain H37Rv; conditions: cited from earlier work
[4] = read-out: MIC (µM) mc^24914, Table 1, commercial material, […]
[5] = read-out: MIC (µM) mc^24914, Table 2, synthetic material

Structure (SMILES)	MIC [1, 4] [µM]	MIC [1, 5] [µM]	also measured
COc1cccc(Nc2ccc([N+](=O)[O-])c3nonc23)c1 [JSF-2164, N-(3-methoxyphenyl)-7-nitrobenzo[c][1,2,5]oxadiazol-4-amine]	30 (≈ 8.59 µg/mL)	25 (≈ 7.16 µg/mL)	MIC shift versus the inhA overexpression strain as compared to H37Rv ([1]; mc^24914 vs H37Rv): 3 fold; mutation rate (spontaneous resistance) [2]: ~10^−5
Oc1cc(Cl)ccc1Oc1ccc(Cl)cc1Cl [triclosan, reference compound]	120 (≈ 34.7 µg/mL)		
COc1cccc(Nc2ccc3nonc3c2N)c1 [JSF-3617, N5-(3-methoxyphenyl)benzo[c][1,2,5]oxadiazole-4,5-diamine]		125 (≈ 32 µg/mL)	
COc1cccc(Nc2ccc(N)c3nonc23)c1 [JSF-3616, N4-(3-methoxyphenyl)-benzo[c][1,2,5]oxadiazole-4,7-diamine]		32 (≈ 8.2 µg/mL)	
O=[N+]([O-])c1cn2c(n1)OC[C@@H](OCc1ccc(OC(F)(F)F)cc1)C2 [pretomanid]			frequency of resistance [3]: 10^−5 to 10^−6
NNC(=O)c1ccncc1 [isoniazid, reference compound]	2.5 (≈ 0.343 µg/mL)	2.5 (≈ 0.343 µg/mL)	
